Results as given in patent publication US11372007B2, “Method of detecting biological material, and chemiluminescent indicator used therein” (Osaka University, priority 2017, dated 2022).

How the values were obtained:
[1] = molecular target: T1, UnaG (CΔ0)-NLuc (NΔ1) fusion protein (wild-type chemiluminescent bilirubin indicator, linker GT), SEQ ID NO: 12 (Anguilla japonica, UniProt P0DM59); assay: titration curve of the wild-type chemiluminescent bilirubin indicator with bilirubin (luminescence spectra, Hill fit); type: binding
T1 construct: made in house; host or cells: E. coli JM109 (DE3)
T1 sequence (P0DM59 with tags, fused parts or gaps): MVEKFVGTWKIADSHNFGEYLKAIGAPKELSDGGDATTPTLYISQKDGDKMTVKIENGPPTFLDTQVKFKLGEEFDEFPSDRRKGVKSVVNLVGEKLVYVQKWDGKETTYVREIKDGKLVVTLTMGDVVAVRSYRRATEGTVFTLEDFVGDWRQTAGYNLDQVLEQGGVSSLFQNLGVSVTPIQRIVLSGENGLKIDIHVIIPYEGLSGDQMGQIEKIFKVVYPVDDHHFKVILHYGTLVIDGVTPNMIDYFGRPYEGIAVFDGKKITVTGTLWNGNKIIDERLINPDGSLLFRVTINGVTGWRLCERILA
Description: The base sequence of this UnaG (CΔ0)-NLuc (NΔ1) fusion protein is represented by SEQ ID NO: 11, and the amino acid sequence of the same is represented by SEQ ID NO: 12.
The JM109 (DE3) strain transformed with the UnaG (CΔ0)-NLuc (NΔ1) fusion protein was cultured at 23° C. for 60 hours in 200 mL of LB medium containing 100 μg/mL Carvenisillin solution. After harvesting, the E. coli cells were disrupted by the French press method and purified by affinity chromatography using a Ni-NTA column (QIAGEN). Furthermore, in order to remove excess imidazole, a gel filtration column (PD-10, GE HealthCare) was used. The protein concentration was measured by the Bradford method.
500 μL of the purified UnaG (CΔ0)-NLuc (NΔ1) fusion protein was added to a 15-mL Falcon tube and frozen with liquid nitrogen. Thereafter, a powder of the protein solution was obtained by a lyophilizer. […]
0.01 nM, 0.05 nM, 0.1 nM, 0.5 nM, 1 nM, 2.5 nM, 5 nM, or 10 nM bilirubin (BR) solution and Coelenterazine-h at a final concentration of 5 μM were mixed with the UnaG(CΔ0)-NLuc(NΔ1) fusion protein at a final concentration of 5 nM, and luminescence spectra were measured using a multichannel spectroscope (PMA-12, manufactured by Hamamatsu Photonics K.K.) or a plate reader. […] Mean values of measured values obtained by three independent measurements were plotted, and then fitted as per the Hill equation. […]

UnaG protein = UnaG protein (wild type; UniProtKB/Swiss-Prot: P0DM59.1, GenBank: AB763906.1); conditions: indirect bilirubin; Kumagai et al., Cell 2013, 153, 1602-1611; read-out: dissociation constant; cited from earlier work

SMILES | Kd ([1]; fusion protein 5 nM, bilirubin 0.01-10 nM, Coelenterazine-h 5 μM, mean of three independent measurements, fitted as per the Hill equation) [nM] | affinity for bilirubin (dissociation constant, Kd value), change on storage ([1]; lyophilized sample dissolved in water, stored at room temperature) | Kd (UnaG protein) [nM]
C=CC1=C(C)/C(=C/c2[nH]c(Cc3[nH]c(/C=C4\NC(=O)C(C)=C4C=C)c(C)c3CCC(=O)O)c(CCC(=O)O)c2C)NC1=O [bilirubin] | 3.05 | the affinity was slightly reduced | –
C=CC1=C(C)/C(=C/c2[nH]c(Cc3[nH]c(/C=C4\NC(=O)C(C)=C4C=C)c(C)c3CCC(=O)O)c(CCC(=O)O)c2C)NC1=O [indirect bilirubin] | – | – | 0.098
